# Experiments:
# [1] = SOD assay (enzymatic activity of the CuZnSOD proteins); format: biochemical
# Procedure: 8. SOD assay and activity staining—Enzymatic activity of the CuZnSOD proteins were either analyzed by 10% native gel electrophoresis and activity staining with nitrotetrazolium blue dye or by a quantitative spectrophotometrically assay according to published protocols (Beauchamp and Fridovich, 1971; Nebot et al., 1993). Protein yields were determined by the Bradford method (Protein assay kit, BioRAD, Hercules, Calif., USA). The concentration of purified CuZnSOD was determined spectrophotometrically using the extinction coefficient 265=1.84×10^4 M^−1 cm^−1.
# calcineurin [2] = experiment: Protective effect of CuZnSOD against calcium induced redox inactivation of calcineurin (FK506 inhibitable RII-phosphopeptide activity); format: biochemical; details: 20 min vs 0 min; for Percentage of FK506 inhibitable RII-phosphopeptide activity after 20 min compared with the activity at 0 min, constant protein (3 μg): 3 μg CuZnSOD; for Percentage of FK506 inhibitable RII-phosphopeptide activity after 20 min compared with the activity at 0 min, constant activity (1.67 U): 1.67 U CuZnSOD
# Procedure: (§1) 20. Calcineurin phosphatase assay—100 ng-4 μg recombinant calcineurin (calcineurin-A/B heterodimer), 100 ng-1 μg purified bovine brain calcineurin (Sigma Aldrich, Deisenhofen, Germany) or 100 μg homogenized tissue or cell extracts were used for classical calcineurin phosphatase assays. 100 μg cells or tissue were homogenized exactly as described (Stemmer et al., 1995). Partly purified and redox sensitive calcineurin was prepared by centrifugation at 14,000 rpm at 4° C. for 10 min (Eppendorf centrifuge 5417R) and the resulting supernatant was separated on a 1.5×10 cm Sephadex-G50 gelfiltration column as described (Stemmer et al., 1995), (Gold et al., 1997). Phosphotyrosine phosphatase assay was performed in microplates (100 μl total assay volume) either using 30 μM fluoresceinmonophosphate or 20 mM para-nitrophenylphosphate (Sigma Aldrich, Deisenhofen, Germany); 10 μl recombinant, purified or partly purified and assay buffer (25 mM Tris/HCl, pH 7; 2 mM CaCl2; 0.1 μM calmodulin; 25 μM FK506). After starting the enzymatic reaction with para-nitrophenylphosphate or fluoresceinmonophosphate the absorbance at 405 nm (para-nitrophenylphosphate) or fluorescence λ exication=485 nm; λ emission=520 nm) was monitored over 20 min at 30° C. using a UV/VIS/fluorescence microplate photometer (Biolumin 960 kinetic fluorescence/absorbance photometer, Molecular Dynamics). Phosphoserine phosphatase assay was performed as described (Hubbard and Klee, 1991), (Wang et al., 1996). […] The protective effect of CuZnSOD against redox inactivation of calcineurin was determined by addition of 3 μg recombinant human wild-type or mutated CuZnSOD (constant CuZnSOD protein) or addition of 1.67 units of recombinant human wild-type or mutated CuZnSOD (constant CuZnSOD activity). The reaction mixture was incubated for 2 min at 30° C. and stopped with 100 mM potassium phosphate/5% TCA. The reaction mixture was passed through a 0.5 ml ion-exchange column (Dowex; AG 50W-X8, BioRad) and the unbound phosphate eluted with 0.5 ml water. The quantity of released phosphate was determined by a scintillation counting.
# Protective Effect of CuZnSOD of Calcium Induced Inactivation of Calcineurin
# Percentage of FK506 inhibitable RII-phosphopeptide activity after 20 min compared with the activity at 0 min
# [3] = system: calcineurin-A/B heterodimer; experiment: Laser fluctuation correlation spectroscopy, binding of fluorescence labeled CuZnSOD to calcineurin; set-up: species or system human; details: labeled CuZnSOD alone 41 kDa; expected 114 kDa
# Description: 21. High Throughput BioAssay using recombinant calcineurin-A, recombinant calcineurin-B, calmodulin and recombinant CuZnSOD (analytical assay to identify activators or inhibitors of CuZnSOD/calcineurin interaction)—Laser fluctuation correlation spectroscopy (FCS) is a useful tool to quantify ligand—ligand interactions. The fluorescence F(t) of a optical well defined volume element which is excitated by a confocal laser is monitored as a function of time. The temporal autocorrelation of the fluorescence fluctuation δ F(t) yields the time scale of this dynamics and the average number of independent fluorophores in the probe volume. If the fluorescene fluctuation arise from diffusive motion and from fluorescence sensitive reaction, fluorescent fluctuation correlation function signal is approximated by the formula: GDR(τ)=GDiff(τ)*[1+A*exp(−kR*τ)] • τ=fluorescence correlation time • kR=apparent binding constant of the fluorescent labeled ligand • A=equilibrium coefficent dependent constant
# If one measurement is performed with a solution only containing the fluorescent labeled ligand and a second measurement is performed with a solution containing the fluorescent labeled ligand and an interacting molecule the correlation function GDR can be separately analyzed and yields binding parameters of the interacting molecules. […]
# calcineurin [4] = experiment: Phosphotyrosine phosphatase assay with the substrate fluoresceinmonophosphate (FMP); format: biochemical; details: FMP as substrate, Lineweaver-Burk method
# Procedure: as §1, with “Phosphotyrosine phosphatase assay was performed in microplates (100 μl total assay volume) either using 30 μM fluoresceinmonophosphate or 20 mM para-nitrophenylphosphate (Sigma Aldrich, Deisenhofen, Germany); 10 μl recombinant, purified or partly purified and assay buffer (25 mM Tris/HCl, pH 7; 2 mM CaCl2; 0.1 μM calmodulin; 25 μM FK506).” left out, “Dynamics).” for “Dynamics). Phosphoserine phosphatase assay was performed as described (Hubbard and Klee, 1991), (Wang et al., 1996).”, “The reaction mixture was incubated for 2 min at 30° C. and stopped with 100 mM potassium phosphate/5% TCA. The reaction mixture was passed through a 0.5 ml ion-exchange column (Dowex; AG 50W-X8, BioRad) and the unbound phosphate eluted with 0.5 ml water.” left out, “counting. […]” for “counting.”
Molecule,CuZnSOD activity per mg protein [1],"Percentage of FK506 inhibitable RII-phosphopeptide activity after 20 min compared with the activity at 0 min, constant protein (3 μg) (calcineurin [2])","Percentage of FK506 inhibitable RII-phosphopeptide activity after 20 min compared with the activity at 0 min, constant activity (1.67 U) (calcineurin [2])",hydrodynamic radius / apparent molecular weight after addition of calcineurin-A/B heterodimer [3],Vmax (calcineurin [4]),Km (calcineurin [4]; Michaelis-Menten kinetic assumed)
recomb. mutation G93A: recombinant human CuZnSOD with substitution Gly-93 -> Ala-93,(2130 U/mg),16 +/− 16%,21 +/− 22%,,,
labeled CuZnSOD: recombinant CuZnSOD labeled with Oregon-Green-514 dye,,,,90 kDa,,
recombinant wild-type: recombinant human wild-type copper/zinc superoxide dismutase expressed in E. coli,(6380 U/mg),70 +/− 33%,56 +/− 22%,,,
recomb. mutation D90A: recombinant human CuZnSOD with substitution Asp-90 -> Ala-90,(4590 U/mg),42 +/− 17%,32 +/− 15%,180.000 kDa,,
recomb. mutation A4V: recombinant human CuZnSOD with substitution Ala-4 -> Val-4,(1820 U/mg),22 +/− 27%,8 +/− 3%,,,
erythrocyte wild-type: purified human erythrocyte CuZnSOD (Sigma Aldrich) [reference compound],(8330 U/mg),57 +/− 10%,57 +/− 10%,,,
"O=C1OC2(c3ccc(O)cc3Oc3cc(OP(=O)(O)O)ccc32)c2ccccc21 (stereo not shown) [FMP, fluoresceinmonophosphate]",,,,,400 µmol/min,40 µM
